In patent publication US8791303B2, “Herbicides” (Syngenta Limited, priority 2009, dated 2014):

Tests used:
Format in all cases: in vivo
[1] = system: Echinochloa crus-galli (ECHCG); test: Example A glasshouse herbicide test, pre-emergence, ECHCG; details: Echinochloa crus-galli, pre-emergence, 312 h, Rate 250 g/ha, sprayed after cultivation for one day, evaluated after 13 days, read-out: Pre-Emergence Activity ECHCG (100=total damage to plant; 0=no damage to plant)
Method: (§1) Seeds of a variety of test species are sown in standard soil in pots. After cultivation for one day (pre-emergence) or after 8 days cultivation (post-emergence) under controlled conditions in a glasshouse (at 24/16° C., day/night; 14 hours light; 65% humidity), the plants are sprayed with an aqueous spray solution derived from the formulation of the technical active ingredient in acetone/water (50:50) solution containing 0.5% Tween 20 (polyoxyethelyene sorbitan monolaurate, CAS RN 9005-64-5).
(§2) The test plants are then grown in a glasshouse under controlled conditions in a glasshouse (at 24/16° C., day/night; 14 hours light; 65% humidity) and watered twice daily. After 13 days for pre and post-emergence, the test is evaluated (100=total damage to plant; 0=no damage to plant).
(§3) Lolium perenne (LOLPE), Alopecurus myosuroides (ALOMY), Echinochloa crus-galli (ECHCG), Avena fatua (AVEFA)

Avena fatua (AVEFA) [2] = test: Example A glasshouse herbicide test, post-emergence, AVEFA; details: Avena fatua, post-emergence, 312 h, Rate 250 g/ha, sprayed after 8 days cultivation, evaluated after 13 days, read-out: Post-Emergence Activity AVEFA (100=total damage to plant; 0=no damage to plant)
Method: as §1, §2, §3

[3] = system: Echinochloa crus-galli (ECHCG); test: Example A glasshouse herbicide test, post-emergence, ECHCG; details: Echinochloa crus-galli, post-emergence, 312 h, Rate 250 g/ha, sprayed after 8 days cultivation, evaluated after 13 days, read-out: Post-Emergence Activity ECHCG (100=total damage to plant; 0=no damage to plant)
Method: as §1, §2, §3

[4] = system: Winter Wheat variety 'Hereward'; test: Example B crop damage test, post-emergence, wheat seed treated with safener cloquintocet mexyl; details: Rate 250 g/ha; post-emergence spray 8 days after sowing; seed treated with cloquintocet mexyl 0.5 g/kg dry seed; evaluated after 13 days
Method: Seeds of the Winter Wheat variety ‘Hereward’ were seed treated with a wettable powder formulation of the cereal herbicide safener, cloquintocet mexyl, at a rate of 0.5 grams per kilogram of dry seed prior to the initiation of glasshouse testing. One seed was sown per 1.5 inch plastic pot into a sandy loam soil at a depth of 1 cm, 8 days prior to application of the test compounds and was watered and grown under controlled conditions in a glasshouse (at 24/16° C., day/night; 14 hours light; 65% humidity). The plants were sprayed post-emergence with an aqueous spray solution derived from the formulation of the technical active ingredient in acetone/water (50:50) solution containing 0.5% Tween 20 (polyoxyethelyene sorbitan monolaurate, CAS RN 9005-64-5).
(§4) The test plants were then grown in a glasshouse under controlled conditions in a glasshouse (at 24/16° C., day/night; 14 hours light; 65% humidity) and watered twice daily. After 13 days for pre and post-emergence, the test was evaluated (100=total damage to plant; 0=no damage to plant).

Avena fatua (AVEFA) [5] = test: Example A glasshouse herbicide test, pre-emergence, AVEFA; details: Avena fatua, pre-emergence, 312 h, Rate 250 g/ha, sprayed after cultivation for one day, evaluated after 13 days, read-out: Pre-Emergence Activity AVEFA (100=total damage to plant; 0=no damage to plant)
Method: as §1, §2, §3

[6] = system: Alopecurus myosuroides (ALOMY); test: Example A glasshouse herbicide test, post-emergence, ALOMY; details: Alopecurus myosuroides, post-emergence, 312 h, Rate 250 g/ha, sprayed after 8 days cultivation, evaluated after 13 days, read-out: Post-Emergence Activity ALOMY (100=total damage to plant; 0=no damage to plant)
Method: as §1, §2, §3

[7] = system: Alopecurus myosuroides (ALOMY); test: Example A glasshouse herbicide test, pre-emergence, ALOMY; details: Alopecurus myosuroides, pre-emergence, 312 h, Rate 250 g/ha, sprayed after cultivation for one day, evaluated after 13 days, read-out: Pre-Emergence Activity ALOMY (100=total damage to plant; 0=no damage to plant)
Method: as §1, §2, §3

Lolium perenne (LOLPE) [8] = test: Example A glasshouse herbicide test, pre-emergence, LOLPE; details: Lolium perenne, pre-emergence, 312 h, Rate 250 g/ha, sprayed after cultivation for one day, evaluated after 13 days, read-out: Pre-Emergence Activity LOLPE (100=total damage to plant; 0=no damage to plant)
Method: as §1, §2, §3

Lolium perenne (LOLPE) [9] = test: Example A glasshouse herbicide test, post-emergence, LOLPE; details: Lolium perenne, post-emergence, 312 h, Rate 250 g/ha, sprayed after 8 days cultivation, evaluated after 13 days, read-out: Post-Emergence Activity LOLPE (100=total damage to plant; 0=no damage to plant)
Method: as §1, §2, §3

[10] = system: Winter Wheat variety 'Hereward'; test: Example B crop damage test, post-emergence, unsafened wheat; details: Rate 250 g/ha; post-emergence spray after 8 days cultivation; no safener; evaluated after 13 days
Method: Seeds of the Winter Wheat variety ‘Hereward’ were sown in standard soil in pots. After 8 days cultivation under controlled conditions in a glasshouse (at 24/16° C., day/night; 14 hours light; 65% humidity), the plants were sprayed post-emergence with an aqueous spray solution derived from the formulation of the technical active ingredient in acetone/water (50:50) solution containing 0.5% Tween 20 (polyoxyethelyene sorbitan monolaurate, CAS RN 9005-64-5).
as §4

| Compound | pest or weed control at 250 g/ha [1] [%] | pest or weed control at 250 g/ha (Avena fatua (AVEFA) [2]) [%] | pest or weed control at 250 g/ha [3] [%] | Winter Wheat (Hereward) + cloquintocet mexyl damage (100=total damage to plant; 0=no damage to plant) [4] | pest or weed control at 250 g/ha (Avena fatua (AVEFA) [5]) [%] | pest or weed control at 250 g/ha [6] [%] | pest or weed control at 250 g/ha [7] [%] | pest or weed control at 250 g/ha (Lolium perenne (LOLPE) [8]) [%] | pest or weed control at 250 g/ha (Lolium perenne (LOLPE) [9]) [%] | Winter Wheat (Hereward) damage (100=total damage to plant; 0=no damage to plant) [10] |
| --- | --- | --- | --- | --- | --- | --- | --- | --- | --- | --- |
| Cc1cc(C)c(C2C(=O)CC(CC3CCCCC3)C2=O)c(C)c1 (stereo not shown) [Compound A2] | 90 | 80 | 90 | 10 | 70 | 70 | 70 | 100 | 100 | 70 |
| Cc1cc(C)c(C2C(=O)CC(CC3CCCC3)C2=O)c(C)c1 (stereo not shown) [Compound A3] | 100 | 80 | 90 | 20 | 70 | 90 | 100 | 100 | 90 | 60 |
| Cc1cc(C)c(C2C(=O)C/C(=C\C3CCCC3)C2=O)c(C)c1 (stereo not shown) [Compound A4] | 100 | 70 | 90 | 0 | 70 | 70 | 100 | 100 | 60 | 60 |
| C=C(C)C1CCC(/C=C2\CC(=O)C(c3c(C)cc(C)cc3C)C2=O)CC1 (stereo not shown) [Compound A5] | 80 | 20 | 30 | 0 | 0 | 30 | 30 | 40 | 30 | 10 |
| Cc1cc(C)c(C2C(=O)CC(CC3CC(C)CCC3C)C2=O)c(C)c1 (stereo not shown) [Compound A6] | 90 | 60 | 80 | 0 | 50 | 80 | 50 | 100 | 80 | 10 |
| Cc1cc(Br)cc(C)c1C1C(=O)C/C(=C\C2CCCCC2)C1=O (stereo not shown) [Compound A7] | 50 | 40 | 80 | 0 | 20 | 50 | 40 | 60 | 30 | 20 |
| Cc1cc(C)c(C2C(=O)CC(CC3CCC(=NO)CC3)C2=O)c(C)c1 (stereo not shown) [Compound A8] | 90 | 90 | 50 | 10 | 40 | 70 | 60 | 90 | 100 | 30 |
| Cc1cccc(C)c1C1C(=O)CC(CC2CCCCC2)C1=O (stereo not shown) [Compound A10, 4-cyclohexylmethyl-2-(2,6-dimethyl-phenyl)-cyclopentane-1,3-dione] | 20 | 20 | 70 | 0 | 0 | 20 | 0 | 80 | 40 | 10 |
| Cc1cc(Br)cc(C)c1C1C(=O)CC(CC2CCCCC2)C1=O (stereo not shown) [Compound A11] | 0 | 0 | 20 | 0 | 0 | 10 | 0 | 20 | 50 | 0 |
| Cc1cc(C)c(C2C(=O)CC(CC3CCC3)C2=O)c(C)c1 (stereo not shown) [Compound A25] | 100 | 80 | 90 | 0 | 60 | 60 | 100 | 100 | 100 | 30 |
| Cc1cc(C)c(C2C(=O)C/C(=C\C3CCCCC3C)C2=O)c(C)c1 (stereo not shown) [Compound A26] | 100 | 50 | 70 | 20 | 90 | 60 | 90 | 100 | 90 | 40 |
| Cc1cc(C)c(C2C(=O)C/C(=C\C3CC3)C2=O)c(C)c1 (stereo not shown) [Compound A27, 4-[1-Cyclopropyl-methylidene]-2-(2,4,6-trimethyl-phenyl)-cyclopentane-1,3-dione] | 100 | 70 | 100 | 0 | 70 | 60 | 90 | 100 | 100 | 40 |
| Cc1cc(C)c(C2C(=O)CC(CC3CC3)C2=O)c(C)c1 (stereo not shown) [Compound A28, 4-Cyclopropylmethyl-2-(2,4,6-trimethyl-phenyl)-cyclopentane-1,3-dione] | 100 | 50 | 90 | 10 | 70 | 70 | 90 | 100 | 100 | 30 |
